Measured values from patent publication US5420289A, “Substituted indole-, indene-, pyranoindole- and tetrahydrocarbazole-alkanoic acid derivatives as inhibitors of PLA2 and lipoxygenase” (American Home Products Corporation, priority 1993, dated 1995).
Structures can show the parent of a compound that is named as a salt. Where two headings read alike, the source gives them in different places.

Legend:
[1] = target: T1, human platelet PLA2 (Homo sapiens, UniProt P14555); test: in vitro isolated phospholipase A2 assay, human platelet PLA2 (Example 74); format: biochemical; parameters: dose or concentration left out as unconfirmed; settings: read-out: % Inhibition, HP (human platelet)
T1 construct: Semi-purified human platelet acid extract PLA2; from tissue; host or cells: human platelets (semi-purified acid extract)
T1 sequence (P14555 21-144): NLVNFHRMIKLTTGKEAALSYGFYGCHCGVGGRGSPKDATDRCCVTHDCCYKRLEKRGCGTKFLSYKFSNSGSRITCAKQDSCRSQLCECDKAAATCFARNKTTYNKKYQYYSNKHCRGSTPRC
Description: (§1) The compounds of the invention are tested in an in vitro isolated phospholipase A2 assay to determine the ability of the test compounds to inhibit the release of arachidonic acid from an arachidonic acid-containing substrate by the action of phospholipase A2 enzyme from human and non-human sources.
(§2) This assay is carried out as follows:
(§3) Into a 15 mL polypropylene tube are added the following:
(§4) ^6 Two human PLA2 enzymes are used:
a) Semi-purified human platelet acid extract PLA2 (in 10 mM
sodium acetate buffer, pH 4.5). Remove protein precipitate by
centrifugation at about 2200 rpm for 10 minutes.
(§5) Incubate the 100mL reaction mixture for 10 minutes at 37° C. in a shaking water bath. The reaction is terminated by the addition of 2 mL tetrahydrofuran, followed by vortexlag. NH2 columns (100 mg/mL--Analytichem International) are conditioned with 0.5 mL tetrahydrofuran followed by 0.5 mL tetrahydrofuran/water (2 mL:0.1 mL, v/v).
(§6) The sample is loaded onto the columns and slowly drawn through them. The hydrolyzed arachidonic acid retained in the columns is eluted therefrom with 1 mL tetrahydrofuran/glacial acetic acid (2%). The arachidonic acid is transferred to scintillation vials and quantitated by b-counting analysis. A "total counts" sample is prepared by pipetting […] ^3 H-arachidonate E. coli directly into a scintillation vial to which is added 1 mL tetrahydrofuran. 10 mL aquasol (scintillation cocktail) is added to all samples. [formula]

[2] = target: T2, human synovial fluid PLA2 (Homo sapiens, UniProt P14555); test: in vitro isolated phospholipase A2 assay, human synovial fluid PLA2 (Example 74); format: biochemical; parameters: inhibition / % Inhibition, HSF (human synovial fluid): dose or concentration left out as unconfirmed; settings: for inhibition: read-out: % Inhibition, HSF (human synovial fluid); for IC50: Table III, read-out: IC50 HSF (human synovial fluid)
T2 sequence (P14555 21-144): T1 sequence (P14555 21-144)
Description: as §1, §2, §3, §4
b) Purified human synovial fluid.
as §5, §6

[3] = system: cyclooxygenase (PGE2 synthesis) in rat polymorphonuclear leukocytes (PMN); test: inhibition of PGE2 synthesis (cyclooxygenase) by rat glycogen-elicited PMN (Example 73); format: cell-based, rat (female Wistar); settings: Leukocyte; for inhibition at 10000 µM: at 10 mM
Description: (§7) Rat polymorphonuclear leukocytes (PMNs) are obtained from female Wistar rats (150-200 g) which receive an injection of 6% glycogen (10 ml i.p.). Rats are sacrificed 18-24 hours post injection by CO2 asphyxiation and the elicited cells are harvested by peritoneal lavage using physiological saline (0.9% NaC1). The exudate is centrifuged at 400 ×g for 10 minutes. The supernatant fluid is discarded and the cell pellet is resuspended to a concentration of 2.0×10^7 cells/mL in HBSS containing Ca^++ and Mg^++ and 10 mM L-cysteine.
(§8) To 1 mL aliquots of cell suspension, test drugs or vehicle are added, then preincubated at 37° C. for 10 minutes. A23187 (1 mM), [^3 H]-AA (3.0 mCi/mL) and unlabeled AA (1 mM) are then added and the samples are further incubated for 10 minutes. The reaction is terminated by centrifugation and pelleting cells. Supernatants are then analyzed by HPLC analysis on a 15 cm×4.6 mm ID supelcosil LC-18 (Supelco)(3M) column, using a two solvent system at a flow rate of 1.4 mL total flow as follows:
In this assay, the procedure of Example 72 is carried out as described. However, in order to determine cyclooxygenase activity, the samples are cochromatographed with authentic reference [^3 H]-PGE2.
The results be calculated as in Example 72 and presented below: […]

[4] = system: synthesis of LTB4 by rat glycogen-elicited polymorphonuclear leukocytes (PMN); test: inhibition of LTB4 synthesis by rat glycogen-elicited PMN (Example 72); format: cell-based, rat (female Wistar); settings: Leukocyte; for inhibition at 10000 µM: at 10 mM, negative number denotes potentiation; for inhibition at 500 µM: at 0.5 mM
Source text: This is especially true with respect to 5,12-diHETE, which is also denoted as LTB4 lsee Ford-Hitchinson, J. Roy. Soc. Med., 74, 831 (1981)]. Compounds which inhibit the PLA2 -mediated release of arachidonic acid thereby effectively prevent the oxidation of arachidonic acid to the various leukotriene products via the lipoxygenase cascade. Accordingly, the specificity of action of PLA2 inhibitors can be determined by the activity of test compounds in this assay, which measures the ability of compounds to inhibit the synthesis of LTB4 by rat glycogen-elicited polymorphonuclear leukocytes (PMN) in the presence of exogenous substrate.
The assay is carded out as follows:
as §7, §8
Gradient: (system is equilibrated with Solvent A)
Percent solvent changes are accomplished in a linear fashion.
Injections: […] of each supernatant is injected directly onto column and ^3 H arachidonic acid metabolites are monitored using an on-line radioactivity detector (Ramona, IN/U S, Fairfield, NJ).
Standards: 10^4 -2.0×10^4 dpm of eicosanoids of interest are injected in […] EtOH cocktail.
Co-chromatography with standard [^3 H] leukotriene B4 (LTB4) in medium of stimulated PMN exposed to drug is compared to that found in medium of stimulated cells exposed to no drug, generating percent inhibition.
Results are expressed as percent inhibition at a given compound dose or as an IC50 value.

[5] = system: 5-lipoxygenase in human whole blood; test: inhibition of 5-lipoxygenase in human whole blood (Example 79); format: cell-based; settings: 25 μM
Description: The assay of this Example measures the ability of the compounds tested to inhibit 5-lipoxygenase in human whole blood.
as §2
Blood is obtained in 50-100 ml quantities from male donors. White blood cell counts and differentials are made. Two ml of blood are placed in a 15 ml polypropylene test tube. Compounds are solubilized in dimethylsulfoxide and diluted 1:10 in 10% bovine serum albumin in phosphate buffered saline, pH 7.4 resulting in a final dimethylsulfoxide concentration of 0.1% in the blood. Then, compounds are added to the blood in a shaking water bath at 37° C. for 10 minutes prior to the addition of […] calcium ionophore (A23187; Sigma). After ionophore administration, whole blood samples are mixed and incubated for 20 minutes at 37° C. in a shaking water bath. Incubation is terminated by placing samples in an ice bath and immediately adding ethylene glycol-bis-(b-aminoethyl ether)-N,N,N',N'-tetraacetic acid (10 mM). Samples are mixed and centrifuged at 1200 × g for 15 minutes at 4° C. Preparation of samples for evaluation by RIA or ELISA is carried out by the following protocol. Plasma is removed from sample tubes, placed in 15 ml polypropylene test tubes containing 8 ml methanol, and then vortexed to precipitate protein. Samples are stored at -70° C. overnight. The next day, samples are centrifuged at 200 × g for 15 minutes at 4° C. to pellet the precipitate. Samples are dried in a Savant speed vac concentrator, reconstituted to original volume with ice cold RIA or ELISA buffer, and stored at -70° C. until assayed. The assay for eicosanoids (LTB4, T×B2, and PGE2) is performed as described by the manufacturer of the [^3 H]-RIA kit or ELISA kit (LTB4 -Amersham, TxB2 and PGE2 - Caymen Chemical).
The total eicosanoid level in 2 ml of blood is calculated and reported as ng/10^6 neutrophils. […] Drug effects are expressed as percent change from control values.
Compounds tested in vitro are solubilized in dimethylsulfoxide and diluted 1:10 in 10% bovine serum albumin in phosphate buffer saline resulting in a final dimethylsulfoxide concentration of 0.1% i n the blood.

[6] = * (negative) denotes a potentiation, read-out: % Inhibition (PGE2 synthesis)
[7] = read-out: % Inhibition (PGE2 synthesis), symbol only

Structure (SMILES) | inhibition [2] | inhibition at 10000 µM [3, 6] | IC50 [2] | inhibition at 10000 µM [4] | further results
CCOC(=O)Cc1c(C)n(Cc2ccc(Cl)cc2)c2ccc(OCc3csc(-c4ccc(Cl)cc4)n3)cc12 [Example 68, 5-[[2-(4-Chlorophenyl)-4-thiazolyl]methoxy]-1-[(4-chlorophenyl)methyl]-2-methyl-1H-indole-3-acetic acid ethyl ester] | 0% | – | – | – | inhibition [1]: 2%
CCCCCCn1c(C)c(CC(=O)O)c2cc(OCc3ccc4ccccc4n3)ccc21 [Example 30, 1-Hexyl-2-methyl-5-(2-quinolinylmethoxy)-1H-indole-3-acetic acid three quarters hydrate] | 46% | -130% | 16.4 µM | 90% | –
Cc1c(CC(=O)O)c2cc(OCc3ccc4ccccc4n3)ccc2n1Cc1ccc(Cl)cc1 [Example 16, 1-[(4-Chlorophenyl)methyl]-2-methyl-5-(2-quinolinylmethoxy)-1H-indole-3-acetic acid hydrochloride quarter hydrate] | 46% | – | 4.1 µM | 96% | inhibition at 10000 µM [3, 7]: < 0%; % Inhibition of LTB4 [5]: 18%
CC1=C(CC(=O)O)c2cc(F)ccc2/C1=C\c1ccc([S+](C)[O-])cc1 (stereo not drawn) [sulindac, reference compound] | – | 23% | – | -10% | –
Cc1c(CC(=O)O)c2cc(OCc3ccc4ccccc4n3)ccc2n1Cc1ccc(Br)cc1 [Example 25, 1-[(4-Bromophenyl)methyl]-2-methyl-5-(2-quinolinylmethoxy)-1H-indole-3-acetic acid hemihydrate] | 11% | -67% | – | 93% | –
Cc1c(CC(=O)O)c2cc(OCc3ccc4ccccc4n3)ccc2n1Cc1ccc(F)cc1 [Example 24, 1-[(4-Fluorophenyl)methyl]-2-methyl-5-(2-quinolinylmethoxy)-1H-indole-3-acetic acid hemihydrate] | 56% | -126% | – | 97% | –
Cc1c(CC(=O)O)c2cc(OCc3csc(-c4ccccc4)n3)ccc2n1Cc1ccc(C(C)(C)C)cc1 [Example 62, 5-[(2-Phenyl-4-thiazolyl)methoxy]-1-[[4-(1,1-dimethylethyl)phenyl]methyl]-2-methyl-1H-indole-3-acetic acid hemihydrate] | 30% | – | – | – | inhibition [1]: 3%
Cc1c(CC(=O)O)c2cc(OCc3ccc4ccccc4n3)ccc2n1Cc1ccccc1 [Example 26, 1-[(Phenyl)methyl-2-methyl]-5-(2-quinolinylmethoxy)-1H-indole-3-acetic acid tenth hydrate] | 92% | -125% | 2.6 µM | 85% | –
Cc1c(CC(=O)O)c2cc(OCc3csc(-c4ccccc4)n3)ccc2n1CCCc1ccccc1 [Example 63, 5-[(2-Phenyl-4-thiazolyl)methoxy]-1-(3-phenylpropyl)-2methyl-1H-indole-3-acetic acid] | 34% | – | – | – | inhibition [1]: 2%
CC(C(=O)O)c1ccc2c3cc(OCc4ccc5ccccc5n4)ccc3n(Cc3ccc4ccccc4n3)c2c1 (stereo not drawn) [Example 21, a-Methyl-6-(2-quinolinylmethoxy)-9-(2-quinolinylmethyl)-9H-carbazole-2-acetic acid] | – | -94% | – | 92% | –
CCc1cc(OCc2ccc3ccccc3n2)cc2c3c([nH]c12)C(CC)(CC(=O)O)OCC3 (stereo not drawn) [Example 8, 1,8-Diethyl-1,3,4,9-tetrahydro-6-(2-quinolinylmethoxy)pyrano[3.4-b]indole-1-acetic acid] | – | 47% | – | 91% | –
Cc1c(CC(=O)O)c2cc(OCc3ccc4ccccc4n3)ccc2n1C(=O)c1ccc(Cl)cc1 [Example 17, 1-(4-Chlorobenzoyl)-2-methyl-5-(2-quinolinylmethoxy)-1H-indole-3-acetic acid three quarters hydrate] | 58% | – | 14.9 µM | – | inhibition at 500 µM ([3]; at 0.5 mM, * (negative) denotes a potentiation): 60%; inhibition at 500 µM [4]: 46%
CC(C(=O)O)c1ccc2c(c1)[nH]c1ccc(Cl)cc12 (stereo not drawn) [carprofen, reference compound] | – | 83% | – | -10% | –
CCCCCn1c(C)c(CC(=O)O)c2cc(OCc3ccc4ccccc4n3)ccc21 [Example 29, 2-Methyl-1-pentyl-5-(2-quinolinylmethoxy)-1H-indole-3-acetic acid hemihydrate] | 53% | -123% | 15.5 µM | 88% | –
COC(=O)Cc1c(C)n(C(=O)c2ccc(Cl)cc2)c2ccc(OCc3ccc4ccccc4n3)cc12 [Example 17A, 1-(4-Chlorobenzoyl)-2-methyl-5-(2-quinolinylmethoxy)-1H-indole-3-acetic acid methyl esterone tenth hydrate] | – | 50% | – | 96% | –
COC(=O)Cc1c(C)n(Cc2ccc(Cl)cc2)c2ccc(OCc3ccc4ccccc4n3)cc12 [Example 16C, 1-[(4-Chlorophenyl)methyl]-2-methyl-5-(2-quinolinylmethoxy)-1H-indole-3-acetic acid methyl ester] | – | – | – | – | inhibition at 10000 µM [3, 7]: < 0%; inhibition at 500 µM [4]: 88%
